Laboratory results as given in patent US20080009418A1, “Selective Inhibitors” (Alchemia LTD., priority 2004, published 2008).

Columns and labels:
[1] = target: T1, Human Melanocortin (MC4) (Homo sapiens, UniProt P32245); assay: Radioligand binding, human melanocortin MC4 membranes, FlashPlate, [125I]-NDP-αMSH; conditions: compound at 10 μM; for A4 radioligand binding inhibition: human melanocortin MC4 membranes
T1 construct: purchased Perkin Elmer Biosignal
Summary of the method: (§1)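 Cloned human receptor membranes were coated onto FlashPlate wells and incubated with radioligand and compound (added from a 0.5 mM DMSO daughter plate) for 1 hour at room temperature in the dark. Scintillation counting gave percent inhibition, with DMSO defining total and reference ligand defining non-specific binding.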

[2] = target: T2, Human opioid (ORL1) (Homo sapiens, UniProt P41146); assay: Radioligand binding, human opioid ORL1 membranes, FlashPlate, [125I]-Nociceptin; conditions: compound at 10 μM; for A10 radioligand binding inhibition: human ORL1 membranes
T2 construct: purchased Perkin Elmer Biosignal
Summary of the method: as §1

[3] = target: T3, Human δ-opioid (DOP) (Homo sapiens, UniProt P41143); assay: Radioligand binding, human δ-opioid (DOP) membranes, FlashPlate, [3H]-Bremazocine; conditions: compound at 10 μM; for A1 radioligand binding inhibition: human δ-opioid (DOP) membranes
T3 construct: purchased Perkin Elmer Biosignal
Summary of the method: as §1

[4] = target: T4, Human μ-opioid (MOP) (Homo sapiens, UniProt P35372); assay: Radioligand binding, human μ-opioid (MOP) membranes, FlashPlate, [3H]-Naloxone; conditions: compound at 10 μM; for A7 radioligand binding inhibition: human μ-opioid (MOP) membranes
T4 construct: purchased Perkin Elmer Biosignal
Summary of the method: as §1

[5] = target: T5, Human melanin-concentrating hormone (MCH1) (Homo sapiens, UniProt Q99705); assay: Radioligand binding, human melanin-concentrating hormone MCH1 membranes, FlashPlate, [125I]-S36057; conditions: compound at 10 μM; for A6 radioligand binding inhibition: human MCH1 membranes
T5 construct: purchased Perkin Elmer Biosignal
Summary of the method: as §1

[6] = target: T6, Human neuropeptide Y (NPY-Y1) (Homo sapiens, UniProt P25929); assay: Radioligand binding, human neuropeptide Y NPY-Y1 membranes, FlashPlate, [125I]-PYY; conditions: compound at 10 μM; for A9 radioligand binding inhibition: human NPY-Y1 membranes
T6 construct: purchased Perkin Elmer Biosignal
T6 sequence (P25929 1-384): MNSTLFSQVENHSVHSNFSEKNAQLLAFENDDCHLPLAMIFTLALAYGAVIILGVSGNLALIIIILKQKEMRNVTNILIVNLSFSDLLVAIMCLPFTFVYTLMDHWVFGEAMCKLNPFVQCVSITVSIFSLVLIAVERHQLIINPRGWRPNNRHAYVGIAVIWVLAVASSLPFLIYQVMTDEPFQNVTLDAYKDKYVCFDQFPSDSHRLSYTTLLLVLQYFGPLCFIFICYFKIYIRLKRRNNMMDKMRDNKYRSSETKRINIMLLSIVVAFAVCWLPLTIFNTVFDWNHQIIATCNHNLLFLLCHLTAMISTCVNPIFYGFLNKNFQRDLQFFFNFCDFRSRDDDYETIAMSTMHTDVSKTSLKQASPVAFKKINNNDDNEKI
Summary of the method: as §1

[7] = target: T7, Human melanocortin (MC5) (Homo sapiens, UniProt P33032); assay: Radioligand binding, human melanocortin MC5 membranes, FlashPlate, [125I]-NDP-αMSH; conditions: compound at 10 μM; for A5 radioligand binding inhibition: human melanocortin MC5 membranes
T7 construct: purchased Perkin Elmer Biosignal
Summary of the method: as §1

[8] = target: T8, Mouse urotensin (mUR2) (Mus musculus, UniProt Q8VIH9); assay: Radioligand binding, mouse urotensin mUR2 membranes, FlashPlate, [125I]-Urotensin II; conditions: compound at 10 μM; for A11 radioligand binding inhibition: mouse urotensin mUR2 membranes
T8 construct: purchased Perkin Elmer Biosignal
T8 sequence (Q8VIH9 1-385): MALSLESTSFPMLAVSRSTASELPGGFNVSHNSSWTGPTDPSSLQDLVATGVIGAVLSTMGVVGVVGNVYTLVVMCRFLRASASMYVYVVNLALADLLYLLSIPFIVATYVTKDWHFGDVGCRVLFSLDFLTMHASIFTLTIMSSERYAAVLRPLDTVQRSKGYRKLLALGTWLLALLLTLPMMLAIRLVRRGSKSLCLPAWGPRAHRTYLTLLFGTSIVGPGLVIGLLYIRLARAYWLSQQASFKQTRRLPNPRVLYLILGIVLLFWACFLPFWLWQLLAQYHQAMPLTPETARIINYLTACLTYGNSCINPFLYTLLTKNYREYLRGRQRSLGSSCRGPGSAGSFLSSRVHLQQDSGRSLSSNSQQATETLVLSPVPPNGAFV
Summary of the method: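 Cloned mouse urotensin (mUR2) receptor membranes from Perkin Elmer Biosignal were immobilized in FlashPlate microplates using a proprietary coating. Each well got 19.5 μl buffer, then 0.5 μl of DMSO, reference ligand, or compound. Adding 5 μl of [125I]-Urotensin II, diluted to 5× final concentration in binding buffer, started binding. Plates were sealed with TopSeal-A and incubated 1 hour at room temperature in the dark. Wells were counted for 30 seconds each on a TopCount after a 60-second delay, and percentage inhibition was calculated.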

[9] = target: T9, Human neurokinin (NK1) (Homo sapiens, UniProt P25103); assay: Radioligand binding, human neurokinin NK1 membranes, filtration, [125I]-Substance P; conditions: compound at 10 μM; for A8 radioligand binding inhibition: human neurokinin NK1 membranes
T9 construct: purchased Perkin Elmer Biosignal
Summary of the method: (§2)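 Filtration binding on cloned human receptor membranes (1 Unit/well), [125I]-Substance P for NK1 and [3H]-Diprenorphine for KOP, 1 h at room temperature. Filters PEI-presoaked, washed with cold 50 mM Tris-HCl pH 7.4, counted by scintillation; percent inhibition calculated, reference ligand defining non-specific binding.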

[10] = target: T10, Human κ-Opioid (KOP) (Homo sapiens, UniProt P41145); assay: Radioligand binding, human κ-opioid (KOP) membranes, filtration, [3H]-Diprenorphine; conditions: compound at 10 μM; for A2 radioligand binding inhibition: human κ-opioid (KOP) membranes
T10 construct: purchased Perkin Elmer Biosignal
Summary of the method: as §2

[11] = target: T11, Human Melanocortin (MC3) (Homo sapiens, UniProt P41968); assay: Radioligand binding, human melanocortin MC3 membranes, FlashPlate, [125I]-NDP-αMSH; conditions: compound at 10 μM; for A3 radioligand binding inhibition: human melanocortin MC3 membranes
T11 construct: purchased Perkin Elmer Biosignal
Summary of the method: as §1

T9 sequence (P25103 whole entry): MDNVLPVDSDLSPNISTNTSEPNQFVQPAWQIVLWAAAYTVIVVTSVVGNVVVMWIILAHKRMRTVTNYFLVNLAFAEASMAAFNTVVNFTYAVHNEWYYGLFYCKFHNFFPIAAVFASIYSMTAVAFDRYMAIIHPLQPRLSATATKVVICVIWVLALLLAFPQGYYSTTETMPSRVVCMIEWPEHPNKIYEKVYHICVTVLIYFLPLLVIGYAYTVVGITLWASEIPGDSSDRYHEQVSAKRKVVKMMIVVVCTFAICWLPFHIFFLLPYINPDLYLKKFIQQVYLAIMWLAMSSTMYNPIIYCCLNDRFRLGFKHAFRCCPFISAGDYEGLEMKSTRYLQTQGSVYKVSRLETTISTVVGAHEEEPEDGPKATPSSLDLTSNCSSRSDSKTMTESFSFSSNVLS
T10 sequence (P41145 whole entry): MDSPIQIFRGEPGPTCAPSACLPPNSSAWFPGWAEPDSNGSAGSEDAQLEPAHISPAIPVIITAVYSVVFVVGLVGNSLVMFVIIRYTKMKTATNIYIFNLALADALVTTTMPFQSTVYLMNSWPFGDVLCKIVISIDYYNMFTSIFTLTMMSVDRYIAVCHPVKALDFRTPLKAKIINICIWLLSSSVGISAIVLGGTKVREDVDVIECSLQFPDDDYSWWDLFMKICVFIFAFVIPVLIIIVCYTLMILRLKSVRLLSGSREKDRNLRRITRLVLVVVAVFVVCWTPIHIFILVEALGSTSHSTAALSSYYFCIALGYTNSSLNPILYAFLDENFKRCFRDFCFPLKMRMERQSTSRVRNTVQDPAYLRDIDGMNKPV
T3 sequence (P41143 whole entry): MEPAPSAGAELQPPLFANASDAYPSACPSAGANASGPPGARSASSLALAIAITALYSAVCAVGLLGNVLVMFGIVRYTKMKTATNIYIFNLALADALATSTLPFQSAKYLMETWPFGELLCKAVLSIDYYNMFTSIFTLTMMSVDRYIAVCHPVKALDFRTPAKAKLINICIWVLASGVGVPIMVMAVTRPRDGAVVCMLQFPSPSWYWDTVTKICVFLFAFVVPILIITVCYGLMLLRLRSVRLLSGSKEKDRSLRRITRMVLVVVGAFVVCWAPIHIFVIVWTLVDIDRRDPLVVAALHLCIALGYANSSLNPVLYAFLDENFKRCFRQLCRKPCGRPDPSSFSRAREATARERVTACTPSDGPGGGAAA
T7 sequence (P33032 whole entry): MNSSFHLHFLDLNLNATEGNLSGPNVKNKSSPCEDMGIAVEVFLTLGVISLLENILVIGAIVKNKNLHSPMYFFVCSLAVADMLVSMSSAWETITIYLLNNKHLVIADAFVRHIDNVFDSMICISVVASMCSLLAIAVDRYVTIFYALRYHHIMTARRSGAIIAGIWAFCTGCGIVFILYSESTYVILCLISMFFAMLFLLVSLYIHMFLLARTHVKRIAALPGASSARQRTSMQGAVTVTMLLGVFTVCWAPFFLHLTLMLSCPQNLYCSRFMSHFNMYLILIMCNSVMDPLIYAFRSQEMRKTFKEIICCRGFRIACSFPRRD
T5 sequence (Q99705 whole entry): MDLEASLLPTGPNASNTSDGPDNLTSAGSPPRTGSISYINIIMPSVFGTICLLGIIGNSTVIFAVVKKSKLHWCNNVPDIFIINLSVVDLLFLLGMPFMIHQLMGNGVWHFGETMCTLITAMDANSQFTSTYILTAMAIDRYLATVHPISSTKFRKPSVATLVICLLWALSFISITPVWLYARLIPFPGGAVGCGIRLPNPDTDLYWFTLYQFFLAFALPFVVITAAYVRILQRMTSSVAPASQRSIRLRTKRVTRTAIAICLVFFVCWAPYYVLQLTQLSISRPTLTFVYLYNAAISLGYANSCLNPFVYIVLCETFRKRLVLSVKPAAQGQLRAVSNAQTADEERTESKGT
T4 sequence (P35372 whole entry): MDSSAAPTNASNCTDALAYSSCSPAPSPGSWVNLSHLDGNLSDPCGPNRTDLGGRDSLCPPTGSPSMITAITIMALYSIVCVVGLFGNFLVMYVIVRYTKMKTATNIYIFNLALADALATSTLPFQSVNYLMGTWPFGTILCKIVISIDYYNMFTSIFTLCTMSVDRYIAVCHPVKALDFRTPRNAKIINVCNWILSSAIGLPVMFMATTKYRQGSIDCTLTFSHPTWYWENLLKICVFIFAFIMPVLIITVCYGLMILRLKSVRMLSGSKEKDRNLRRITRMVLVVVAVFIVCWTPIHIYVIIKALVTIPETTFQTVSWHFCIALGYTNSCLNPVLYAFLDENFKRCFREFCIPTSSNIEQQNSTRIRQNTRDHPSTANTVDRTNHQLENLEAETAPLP
T2 sequence (P41146 whole entry): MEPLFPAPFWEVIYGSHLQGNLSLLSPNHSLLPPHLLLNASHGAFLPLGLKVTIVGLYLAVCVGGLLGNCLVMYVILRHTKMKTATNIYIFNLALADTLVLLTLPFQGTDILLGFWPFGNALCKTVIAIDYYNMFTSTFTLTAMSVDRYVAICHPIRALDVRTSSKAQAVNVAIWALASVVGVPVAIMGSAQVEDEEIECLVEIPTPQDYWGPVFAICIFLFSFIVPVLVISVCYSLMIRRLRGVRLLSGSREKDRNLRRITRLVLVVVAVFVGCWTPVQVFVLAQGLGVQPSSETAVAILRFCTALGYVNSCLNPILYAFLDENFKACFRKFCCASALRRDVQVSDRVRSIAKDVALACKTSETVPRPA
T11 sequence (P41968 whole entry): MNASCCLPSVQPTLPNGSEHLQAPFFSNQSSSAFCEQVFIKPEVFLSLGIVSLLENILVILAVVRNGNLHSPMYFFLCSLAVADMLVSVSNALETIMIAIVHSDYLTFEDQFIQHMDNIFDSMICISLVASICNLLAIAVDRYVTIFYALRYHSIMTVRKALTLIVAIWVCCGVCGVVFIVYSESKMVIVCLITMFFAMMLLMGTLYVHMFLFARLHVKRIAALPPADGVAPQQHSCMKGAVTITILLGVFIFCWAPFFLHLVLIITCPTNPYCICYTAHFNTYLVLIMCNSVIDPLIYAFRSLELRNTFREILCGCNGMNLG
T1 sequence (P32245 whole entry): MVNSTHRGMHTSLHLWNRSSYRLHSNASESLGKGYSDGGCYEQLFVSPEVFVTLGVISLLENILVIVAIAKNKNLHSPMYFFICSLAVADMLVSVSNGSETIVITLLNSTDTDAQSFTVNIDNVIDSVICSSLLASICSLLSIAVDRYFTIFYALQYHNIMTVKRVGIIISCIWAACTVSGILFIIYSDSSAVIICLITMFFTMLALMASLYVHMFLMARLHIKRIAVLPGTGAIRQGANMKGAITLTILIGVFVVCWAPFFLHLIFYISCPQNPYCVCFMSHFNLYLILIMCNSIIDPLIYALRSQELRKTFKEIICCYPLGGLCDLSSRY

CO[C@H]1[C@H](O)[C@@H](COCc2ccc(-c3ccccc3)cc2)OC(OCc2ccc3ccccc3c2)[C@@H]1NC(=O)CCCN (stereo partly shown) [compound 68]
A4 radioligand binding inhibition [1]: + (“+” indicates greater than 50% inhibition at 10 μM)
A10 radioligand binding inhibition [2]: − (“−” indicates less than 50% inhibition at 10 μM)
A1 radioligand binding inhibition [3]: − (“−” indicates less than 50% inhibition at 10 μM)
A7 radioligand binding inhibition [4]: − (“−” indicates less than 50% inhibition at 10 μM)
A6 radioligand binding inhibition [5]: + (“+” indicates greater than 50% inhibition at 10 μM)
A9 radioligand binding inhibition [6]: − (“−” indicates less than 50% inhibition at 10 μM)
A5 radioligand binding inhibition [7]: + (“+” indicates greater than 50% inhibition at 10 μM)
A11 radioligand binding inhibition [8]: − (“−” indicates less than 50% inhibition at 10 μM)
A8 radioligand binding inhibition [9]: + (“+” indicates greater than 50% inhibition at 10 μM)
A2 radioligand binding inhibition [10]: − (“−” indicates less than 50% inhibition at 10 μM)
A3 radioligand binding inhibition [11]: + (“+” indicates greater than 50% inhibition at 10 μM)

COC[C@H]1OC(OCCc2ccccc2)[C@H](NC(=O)CNC(=N)N)[C@@H](OCc2ccc(-c3ccccc3)cc2)[C@@H]1O (stereo partly shown) [compound 40]
A4 radioligand binding inhibition [1]: + (“+” indicates greater than 50% inhibition at 10 μM)
A10 radioligand binding inhibition [2]: − (“−” indicates less than 50% inhibition at 10 μM)
A1 radioligand binding inhibition [3]: − (“−” indicates less than 50% inhibition at 10 μM)
A7 radioligand binding inhibition [4]: − (“−” indicates less than 50% inhibition at 10 μM)
A6 radioligand binding inhibition [5]: + (“+” indicates greater than 50% inhibition at 10 μM)
A9 radioligand binding inhibition [6]: − (“−” indicates less than 50% inhibition at 10 μM)
A5 radioligand binding inhibition [7]: + (“+” indicates greater than 50% inhibition at 10 μM)
A11 radioligand binding inhibition [8]: − (“−” indicates less than 50% inhibition at 10 μM)
A8 radioligand binding inhibition [9]: − (“−” indicates less than 50% inhibition at 10 μM)
A2 radioligand binding inhibition [10]: − (“−” indicates less than 50% inhibition at 10 μM)
A3 radioligand binding inhibition [11]: + (“+” indicates greater than 50% inhibition at 10 μM)

CSC1OC(COCc2ccccc2)C(O)C(OCc2ccc(Cl)cc2)C1NC(=O)CNC(=N)N (stereo not shown) [compound 265]
A4: inhibition of radioligand binding ([1]; [125I]-NDP-αMSH, FlashPlate): + (“+” indicates greater than 50% inhibition at 10 μM)
A10: inhibition of radioligand binding ([2]; [125I]-Nociceptin, FlashPlate): − (“−” indicates less than 50% inhibition at 10 μM)
A1: inhibition of radioligand binding ([3]; [3H]-Bremazocine, FlashPlate): − (“−” indicates less than 50% inhibition at 10 μM)
A7: inhibition of radioligand binding ([4]; [3H]-Naloxone, FlashPlate): − (“−” indicates less than 50% inhibition at 10 μM)
A6: inhibition of radioligand binding ([5]; [125I]-S36057, FlashPlate): − (“−” indicates less than 50% inhibition at 10 μM)
A9: inhibition of radioligand binding ([6]; [125I]-PYY, FlashPlate): − (“−” indicates less than 50% inhibition at 10 μM)
A5: inhibition of radioligand binding ([7]; [125I]-NDP-αMSH, FlashPlate): − (“−” indicates less than 50% inhibition at 10 μM)
A11: inhibition of radioligand binding ([8]; [125I]-Urotensin II, FlashPlate): − (“−” indicates less than 50% inhibition at 10 μM)
A8: inhibition of radioligand binding ([9]; [125I]-Substance P, filtration): + (“+” indicates greater than 50% inhibition at 10 μM)
A2: inhibition of radioligand binding ([10]; [3H]-Diprenorphine, filtration): − (“−” indicates less than 50% inhibition at 10 μM)
A3: inhibition of radioligand binding ([11]; [125I]-NDP-αMSH, FlashPlate): − (“−” indicates less than 50% inhibition at 10 μM)

CO[C@H]1[C@H](O)[C@@H](COCc2ccc(-c3ccccc3)cc2)OC(OCCc2ccccc2)[C@@H]1NC(=O)CCCNC(=N)N (stereo partly shown) [compound 112]
A4 radioligand binding, percentage inhibition ([1]; [125I]-NDP-αMSH): + (“+” indicates greater than 50% inhibition at 10 μM)
A10 radioligand binding, percentage inhibition ([2]; [125I]-Nociceptin): − (“−” indicates less than 50% inhibition at 10 μM)
A1 radioligand binding, percentage inhibition ([3]; [3H]-Bremazocine): − (“−” indicates less than 50% inhibition at 10 μM)
A7 radioligand binding, percentage inhibition ([4]; [3H]-Naloxone): − (“−” indicates less than 50% inhibition at 10 μM)
A6 radioligand binding, percentage inhibition ([5]; [125I]-S36057): − (“−” indicates less than 50% inhibition at 10 μM)
A9 radioligand binding, percentage inhibition ([6]; [125I]-PYY): − (“−” indicates less than 50% inhibition at 10 μM)
A5 radioligand binding, percentage inhibition ([7]; [125I]-NDP-αMSH): + (“+” indicates greater than 50% inhibition at 10 μM)
A11 radioligand binding, percentage inhibition ([8]; [125I]-Urotensin II): − (“−” indicates less than 50% inhibition at 10 μM)
A8 radioligand binding, percentage inhibition ([9]; [125I]-Substance P): + (“+” indicates greater than 50% inhibition at 10 μM)
A2 radioligand binding, percentage inhibition ([10]; [3H]-Diprenorphine): − (“−” indicates less than 50% inhibition at 10 μM)
A3 radioligand binding, percentage inhibition ([11]; [125I]-NDP-αMSH): + (“+” indicates greater than 50% inhibition at 10 μM)

NCCC(=O)NC1C(OCc2ccccc2)OC(COCc2ccc3ccccc3c2)C(O)C1OCc1ccc2ccccc2c1 (stereo not shown) [compound 366]
A4: inhibition of radioligand binding, human melanocortin (MC4) ([1]; [125I]-NDP-αMSH): + (“+” indicates greater than 50% inhibition at 10 μM)
A10: inhibition of radioligand binding, human opioid (ORL1) ([2]; [125I]-Nociceptin): − (“−” indicates less than 50% inhibition at 10 μM)
A1: inhibition of radioligand binding, human δ-opioid (DOP) ([3]; [3H]-Bremazocine): − (“−” indicates less than 50% inhibition at 10 μM)
A7: inhibition of radioligand binding, human μ-opioid (MOP) ([4]; [3H]-Naloxone): − (“−” indicates less than 50% inhibition at 10 μM)
A6: inhibition of radioligand binding, human melanin-concentrating hormone (MCH1) ([5]; [125I]-S36057): − (“−” indicates less than 50% inhibition at 10 μM)
A9: inhibition of radioligand binding, human neuropeptide Y (NPY-Y1) ([6]; [125I]-PYY): − (“−” indicates less than 50% inhibition at 10 μM)
A5: inhibition of radioligand binding, human melanocortin (MC5) ([7]; [125I]-NDP-αMSH): + (“+” indicates greater than 50% inhibition at 10 μM)
A11: inhibition of radioligand binding, mouse urotensin (mUR2) ([8]; [125I]-Urotensin II): − (“−” indicates less than 50% inhibition at 10 μM)
A8: inhibition of radioligand binding, human neurokinin (NK1) ([9]; [125I]-Substance P): + (“+” indicates greater than 50% inhibition at 10 μM)
A2: inhibition of radioligand binding, human κ-opioid (KOP) ([10]; [3H]-Diprenorphine): − (“−” indicates less than 50% inhibition at 10 μM)
A3: inhibition of radioligand binding, human melanocortin (MC3) ([11]; [125I]-NDP-αMSH): + (“+” indicates greater than 50% inhibition at 10 μM)
